Test results published in ChEMBL document CHEMBL1201862, “PubChem BioAssay data set” (2004).
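Growth conditions: 96-well plates. Treatment: test compound, 48 hours, 5 concentrations. Analysis: linear interpolation between bracketing concentrations; unreached endpoints set to highest concentration. Abbreviation: GI50, concentration required for 50% inhibition of growth.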 The source made the active and inactive calls. Cut-off read from the data, not from the text of the source: active = GI50 up to about 1.1 µM and inactive = higher.

Experiments:
Experiment in all cases: NCI-60 cell line screen, 48 h
HOP-92 = test system: HOP-92
M19-MEL = test system: M19-MEL
COLO 205 = test system: COLO 205
SF-295 = test system: SF-295
CCRF-CEM = test system: CCRF-CEM
SK-MEL-28 = test system: SK-MEL-28
HL-60 = test system: HL-60
NCI-H226 = test system: NCI-H226
HOP-62 = test system: HOP-62
DLD-1 = test system: DLD-1
A549 = test system: A549
IGROV-1 = test system: IGROV-1
SR = test system: SR
HT-29 = test system: HT-29
SNB-19 = test system: SNB-19
LOX IMVI = test system: LOX IMVI
A498 = test system: A498
K562 = test system: K562
HCT-116 = test system: HCT-116
NCI-H460 = test system: NCI-H460
EKVX = test system: EKVX
DMS-273 = test system: DMS-273
KM12 = test system: KM12
HOP-18 = test system: HOP-18
UO-31 = test system: UO-31
OVCAR-4 = test system: OVCAR-4
UACC-62 = test system: UACC-62
786-0 = test system: 786-0
HCT-15 = test system: HCT-15
U-251 = test system: U-251
HCC 2998 = test system: HCC 2998
MOLT-4 = test system: MOLT-4
SF-268 = test system: SF-268
M14 = test system: M14
OVCAR-5 = test system: OVCAR-5
ACHN = test system: ACHN
RPMI-8226 = test system: RPMI-8226
OVCAR-8 = test system: OVCAR-8
SF-539 = test system: SF-539
NCI-H23 = test system: NCI-H23
SK-MEL-5 = test system: SK-MEL-5
DMS-114 = test system: DMS-114
SW-620 = test system: SW-620
TK-10 = test system: TK-10
SNB-78 = test system: SNB-78
NCI-H522 = test system: NCI-H522
Malme-3M = test system: Malme-3M
RXF 393 = test system: RXF 393
SN12C = test system: SN12C
SK-MEL-2 = test system: SK-MEL-2
SNB-75 = test system: SNB-75
SK-OV-3 = test system: SK-OV-3
LXFL 529 = test system: LXFL 529
RXF 631 = test system: RXF 631
UACC-257 = test system: UACC-257
OVCAR-3 = test system: OVCAR-3
KM-20L2 = test system: KM-20L2
CAKI-1 = test system: CAKI-1
XF498 = test system: XF498

Measured: GI50

O=C1CC(C2(O)C(=O)Nc3ccc([N+](=O)[O-])cc32)c2ccccc21 (configuration not stated)
18.2 µM: HCT-15
inactive: HOP-92 35 µM | M19-MEL 29.2 µM | COLO 205 25.4 µM | SF-295 34.1 µM | CCRF-CEM 19.5 µM | SK-MEL-28 24.8 µM | HL-60 14.8 µM | NCI-H226 14.7 µM | HOP-62 64 µM | DLD-1 40 µM | A549 62.4 µM | IGROV-1 17.8 µM | SR 18.2 µM | HT-29 22.5 µM | SNB-19 > 100 µM | LOX IMVI 16.8 µM | A498 72.8 µM | K562 19.7 µM | HCT-116 31.3 µM | NCI-H460 16.3 µM | EKVX 28.6 µM | DMS-273 20.9 µM | KM12 35.4 µM | HOP-18 28.1 µM | UO-31 > 100 µM | OVCAR-4 20 µM | UACC-62 19.5 µM | 786-0 15.8 µM | U-251 17.7 µM | HCC 2998 20.6 µM | MOLT-4 20.7 µM | SF-268 18.5 µM | M14 18.9 µM | OVCAR-5 > 100 µM | ACHN 54.1 µM | RPMI-8226 20.7 µM | OVCAR-8 66.4 µM | SF-539 32.5 µM | NCI-H23 26.7 µM | SK-MEL-5 27.7 µM | DMS-114 9.48 µM | SW-620 28.2 µM | TK-10 > 100 µM | SNB-78 31.6 µM | NCI-H522 11.2 µM | Malme-3M 40.8 µM | RXF 393 24.8 µM | SN12C 31.8 µM | SK-MEL-2 16.6 µM | SNB-75 39.5 µM | SK-OV-3 36.5 µM | LXFL 529 16.3 µM | RXF 631 16.4 µM | UACC-257 47.1 µM | OVCAR-3 25.4 µM

CCN(CC)CC(C(C)=O)C(c1ccccc1)c1c(O)c2ccccc2oc1=O (configuration not stated)
> 100 µM: HCT-15
inactive: M19-MEL > 100 µM | COLO 205 > 100 µM | SF-295 > 100 µM | CCRF-CEM > 100 µM | SK-MEL-28 > 100 µM | HL-60 > 100 µM | NCI-H226 > 100 µM | HOP-62 > 100 µM | DLD-1 > 100 µM | A549 > 100 µM | IGROV-1 > 100 µM | SR > 100 µM | HT-29 > 100 µM | SNB-19 > 100 µM | LOX IMVI > 100 µM | A498 > 100 µM | K562 > 100 µM | HCT-116 > 100 µM | NCI-H460 > 100 µM | EKVX > 100 µM | DMS-273 > 100 µM | KM12 > 100 µM | HOP-18 > 100 µM | UO-31 > 100 µM | OVCAR-4 > 100 µM | UACC-62 > 100 µM | 786-0 > 100 µM | U-251 > 100 µM | KM-20L2 > 100 µM | HCC 2998 > 100 µM | MOLT-4 > 100 µM | SF-268 > 100 µM | CAKI-1 > 100 µM | XF498 > 100 µM | M14 > 100 µM | OVCAR-5 > 100 µM | ACHN > 100 µM | RPMI-8226 > 100 µM | OVCAR-8 > 100 µM | SF-539 > 100 µM | SK-MEL-5 > 100 µM | DMS-114 > 100 µM | SW-620 > 100 µM | TK-10 > 100 µM | SNB-78 > 100 µM | NCI-H522 > 100 µM | Malme-3M > 100 µM | RXF 393 > 100 µM | SN12C > 100 µM | SK-MEL-2 > 100 µM | SNB-75 42.4 µM | SK-OV-3 > 100 µM | LXFL 529 > 100 µM | UACC-257 63.1 µM | OVCAR-3 > 100 µM
